# Measured values as given in patent US4902709A, “Novel antihypercholesterolemic compounds” (Merck & Co., Inc., priority 1988, dated 1990).
# Target: T1, HMG-CoA reductase (Rattus norvegicus, UniProt P51639)
# T1 sequence (P51639 1-887): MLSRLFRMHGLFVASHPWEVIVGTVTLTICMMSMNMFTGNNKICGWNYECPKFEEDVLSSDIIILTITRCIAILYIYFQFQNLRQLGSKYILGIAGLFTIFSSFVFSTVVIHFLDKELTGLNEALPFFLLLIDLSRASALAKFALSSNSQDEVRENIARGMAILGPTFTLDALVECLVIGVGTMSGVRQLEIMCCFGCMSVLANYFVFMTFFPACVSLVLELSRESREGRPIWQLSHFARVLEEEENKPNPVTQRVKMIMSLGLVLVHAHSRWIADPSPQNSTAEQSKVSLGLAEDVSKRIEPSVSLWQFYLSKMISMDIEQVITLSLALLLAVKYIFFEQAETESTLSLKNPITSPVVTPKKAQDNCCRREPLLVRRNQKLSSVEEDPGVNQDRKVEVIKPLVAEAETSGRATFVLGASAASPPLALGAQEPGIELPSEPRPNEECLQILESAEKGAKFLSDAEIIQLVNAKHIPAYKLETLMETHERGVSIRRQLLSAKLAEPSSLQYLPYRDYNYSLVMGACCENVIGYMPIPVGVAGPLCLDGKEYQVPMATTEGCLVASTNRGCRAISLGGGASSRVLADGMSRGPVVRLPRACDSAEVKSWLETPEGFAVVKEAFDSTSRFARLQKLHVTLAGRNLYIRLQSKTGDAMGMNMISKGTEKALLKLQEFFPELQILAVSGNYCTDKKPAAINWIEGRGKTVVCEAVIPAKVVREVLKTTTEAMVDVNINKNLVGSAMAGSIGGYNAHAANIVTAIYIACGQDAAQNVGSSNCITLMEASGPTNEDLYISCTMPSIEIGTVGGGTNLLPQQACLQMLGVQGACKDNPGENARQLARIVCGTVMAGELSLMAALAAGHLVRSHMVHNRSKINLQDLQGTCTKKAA
# Assay: intrinsic HMG-CoA reductase inhibition (in vitro procedure detailed in U.S. Pat. No. 4,668,699)
# Format: biochemical
# Details: 2,4 dichloro derivatives of formula I
row,Compound,IC50 [µM]
1,"O=C1C[C@@H](c2ccccc2)C[C@H](CCc2ccc(Cl)cc2Cl)O1 (relative stereo) [Example 1, trans-6-[2-(2,4-dichlorophenyl)ethyl]-3,4,5,6-tetrahydro-4-phenyl-2H-pyran-2-one]",21
2,O=C1C[C@@H](c2ccccc2CO)C[C@H](CCc2ccc(Cl)cc2Cl)O1 (relative stereo) [Example 8],42

# Next, values leading:
row,IC50 [µM],Compound
1,20.8,O=C1C[C@@H](c2ccc(O)cc2)C[C@H](CCc2ccc(Cl)cc2Cl)O1 (relative stereo) [Example 5]
2,33.6,O=C1C[C@H](c2ccc(-c3ccccc3)cc2)C[C@@H](CCc2ccc(Cl)cc2Cl)O1 (relative stereo) [Example 2]
3,43.5,COc1ccc([C@@H]2CC(=O)O[C@@H](CCc3ccc(Cl)cc3Cl)C2)cc1 (relative stereo) [Example 4]
